Assay results taken from patent publication US20060116325A1, “Methods and compositions for inhibiting hiv-coreceptor interactions” (priority 2001, published 2006).

Experiments:
CCR5 [1] = molecular target: T1, CCR5 (Homo sapiens, UniProt P51681); test: Chemotaxis of HEK-CCR5 cells to RANTES (microchemotaxis chamber); format: cell-based; set-up: expressed in transfected cells; host or cells: HEK-293; conditions: for inhibition of RANTES-directed chemotactic response / induction of chemotaxis by peptide alone: HEK-CCR5 cells; for inhibition of RANTES-directed chemotactic response: RANTES 100 ng/ml, 3 hr; for induction of chemotaxis by peptide alone: tested at any concentration
T1 sequence (P51681 whole entry): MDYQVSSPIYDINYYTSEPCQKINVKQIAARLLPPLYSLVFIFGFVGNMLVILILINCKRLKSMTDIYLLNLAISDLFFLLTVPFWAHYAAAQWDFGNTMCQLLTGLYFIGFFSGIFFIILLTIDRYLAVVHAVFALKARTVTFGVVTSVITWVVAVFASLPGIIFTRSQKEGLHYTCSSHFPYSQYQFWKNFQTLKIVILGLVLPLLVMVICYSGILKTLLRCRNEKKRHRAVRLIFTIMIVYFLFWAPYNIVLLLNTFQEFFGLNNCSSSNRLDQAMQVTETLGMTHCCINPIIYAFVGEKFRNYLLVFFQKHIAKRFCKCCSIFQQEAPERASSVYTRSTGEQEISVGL
Protocol: Migration of HEK-CCR5 cells to RANTES alone, or the combination of RANTES and designated concentrations of either 15K or 15D peptides, were determined in micro-chemotaxis chambers. […] The results are representative of three independent experiments. *p<0.05.
Chemotaxis assays for HEK-293 cells transfected with CCRS was performed as previously described (Howard et al., J. Biol. Chem. 274:16228-16234, 1999, incorporated herein by reference). Briefly, the chemokine RANTES, diluted in binding medium to 100 ng/ml, was placed in the lower wells of a microchemotaxis chamber. Polycarbonate membrane pretreated with rat tail collagen type 1 was placed over the chemokine solution. The cells (1×10^6/ml) were suspended in binding medium along with the exemplary peptides 15D or 15K at designated concentrations and placed in the upper wells of the chamber. After incubation for 3 hr the membrane was removed, stained using a Diff-Quik kit (Trends Scientific, Kalamazoo, Mich.) and counted. The results are expressed as the “chemotaxis index”, which represents the ratio of the number of cells in high powered field in test versus control samples.
To achieve this goal, the capacity of these peptides to inhibit the chemotactic response of HEK-CCR5 cells to a cognate ligand of CCR5 receptors, the chemokine RANTES, was assayed.

CCR5 [2] = molecular target: T1, CCR5; test: Competition with 125I-MIP-1β binding to SupT1/CCR5 cells; set-up: expressed in transfected cells; host or cells: Sup-T1; conditions: room temperature, 0.1% sodium azide, FIG. 7A
Protocol: FIGS. 7A through 7C depicts the inhibition of chemokine receptor ligand binding by peptide pre-treatment. FIG. 7A. Effect of pre-treatment with peptides 15K and 15D on the binding of MIP-1β to SupT1/CCR5 cells; FIG. 7B. Effect of pre-treatment with peptides 15K and 1SD on the binding of SDF-1α to CEMx174 cells; and FIG. 7C. Effect of pre-treatment with 15K and control peptide 15GIG on the binding of SDF-1α to CEmx174 cells. Binding studies were performed as described in Materials and Methods.
Binding assays were performed with HEK-CCR5 or HEK CXCR4 in triplicate by adding unlabeled competitor (anti-coreceptor binding peptide or control chemokine) and radiolabeled chemokine, 0.2 ng/ml (^125I-MIP-1β or SDF-1α, specific activity 2000 Ci/mmol, NEN Life Science Products) to a cell suspension (4×10^5 cells in 200 μl) in RPMI 1640 supplemented with 1% bovine serum albumin and 25 mM HEPES pH 8.0 (binding medium). […] The supernatant was aspirated and the cell-associated radioactivity was measured using a 1272 Wallac gamma counter. […] After incubation cells were transferred to the tubes containing 800 μl of 10% sucrose in PBS and harvested by centrifugation, the supematant was aspirated and the cell-associated radioactivity was measured using a 1272 Wallac gamma counter. The data were analyzed by nonlinear regression using the computer program GraphPad Prizm 3.0. […]

I R K A H C N I S R A D W N D [Peptide 15D]
inhibitory activity on chemotaxis, one peptide compared with the other (CCR5 [1]; 15D versus 15K, FIG. 2): consistently exhibited greater inhibitory activity | inhibition of RANTES-directed chemotactic response (CCR5 [1]; FIG. 2): completely blocked | induction of chemotaxis by peptide alone (CCR5 [1]): did not induce detectable chemotaxis | inhibition of MIP-1β binding to CCR5 (CCR5 [2]): competitively inhibited chemokine binding

IRKAHCNISRAKWND [Peptide 15K]
inhibition of RANTES-directed chemotactic response (CCR5 [1]; FIG. 2): completely blocked | induction of chemotaxis by peptide alone (CCR5 [1]): did not induce detectable chemotaxis | inhibition of MIP-1β binding to CCR5 (CCR5 [2]): competitively inhibited chemokine binding
